Converted amounts (≈) assume the structure as drawn. Where two headings read alike, the source gives them in different places.
Tests used:
Assay in all cases: MIC, microdilution broth method (NCCLS)
Type in all cases: cell-based
S. aureus ATCC29213 = details: Staphylococcus aureus, read-out: MIC Values, B: S. aureus ATCC29213
Procedure, shortened: (§1)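 NCCLS M7-A4 broth microdilution: two-fold drug dilutions in cation-adjusted Mueller-Hinton broth, inoculum approximately 5×10^4 CFU/well. Trays incubated at 35 °C for 16-20 hours. MIC read by comparing growth to compound-free growth controls.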

E. coli OC2605 = details: Escherichia coli
Procedure, shortened: as §1

E. faecalis ATCC29212 = details: Enterococcus faecalis, read-out: MIC Values, C: E. faecalis ATCC29212
Procedure, shortened: as §1

S. pneumoniae ATCC49619 = details: Streptococcus pneumoniae, read-out: MIC Values, D: S. pneumoniae ATCC49619
Procedure, shortened: as §1

H. influenzae ATCC49247 = details: Haemophilus influenzae, read-out: MIC Values, E: H. influenzae ATCC49247
Procedure, shortened: as §1

[1] = Table 1, 6-Carbamoyl-3-Acyl Macrolide Derivatives
[2] = Table 1, 6-Carbamoyl-3-Acyl Macrolide Derivatives, read-out: MIC Values, A: E. coli OC2605
[3] = Table 2, 3,6-Dicarbamoyl Macrolide Derivatives
[4] = Table 2, 3,6-Dicarbamoyl Macrolide Derivatives, read-out: MIC Values, A: E. coil OC2605

SMILES	MIC (S. aureus ATCC29213; [1]) [µg/mL]	MIC (E. coli OC2605; [2]) [µg/mL]	MIC (E. faecalis ATCC29212; [1]) [µg/mL]	MIC (S. pneumoniae ATCC49619; [1]) [µg/mL]	MIC (H. influenzae ATCC49247; [1]) [µg/mL]	MIC (S. aureus ATCC29213; [3]) [µg/mL]	MIC (E. coli OC2605; [4]) [µg/mL]	MIC (E. faecalis ATCC29212; [3]) [µg/mL]	MIC (S. pneumoniae ATCC49619; [3]) [µg/mL]	MIC (H. influenzae ATCC49247; [3]) [µg/mL]
CC[C@H]1OC(=O)[C@H](C)[C@@H](OC(=O)Cc2cccnc2)[C@H](C)[C@@H](O[C@@H]2O[C@H](C)C[C@H](N(C)C)[C@H]2O)[C@](C)(OC(=O)NC/C=C/c2ccc(-c3ncccn3)cc2)C[C@@H](C)C(=O)[C@H](C)[C@H]2NC(=O)O[C@@]21C [Compound 4, 3-Pyridineacetic acid, (3aS,4R,7R,8S,9S,10R,11R,13R,15R,15aR)-4-ethyltetradecahydro-3a,7,9,11,13,15-hexamethyl-2,6,14-trioxo-11-[[[[(2E)-3-[4-(2-pyrimidinyl)phenyl]-2-propenyl]amino]carbonyl]oxy]-10-[[3,4,6-trideoxy-3-(dimethylamino)-β-D-xylo-hexopyranosyl]oxy]-2H-oxacyclotetradecino[4,3-d]oxazol-8-yl ester]	0.25 (≈ 0.261 µM)	8 (≈ 8.36 µM)	0.25 (≈ 0.261 µM)	0.06 (≈ 0.0627 µM)	2 (≈ 2.09 µM)					
CC[C@H]1OC(=O)[C@H](C)[C@@H](OC(=O)Cc2ccccn2)[C@H](C)[C@@H](O[C@@H]2O[C@H](C)C[C@H](N(C)C)[C@H]2O)[C@](C)(OC(=O)NC/C=C/C=C/c2cccnc2)C[C@@H](C)C(=O)[C@H](C)[C@H]2NC(=O)O[C@@]21C [Compound 25, 2-Pyridineacetic acid, (3aS,4R,7R,8S,9S,10R, 11R,13R,15R,15aR)-4-ethyltetradecahydro-3a,7,9,11,13,15-hexamethyl-2,6,14-trioxo-11-[[[[(2E,4E)-5-(3-pyridinyl)-2,4-pentadienyl]amino]carbonyl]oxy]-10-[[3,4,6-trideoxy-3-(dimethylamino)-β-D-xylo-hexopyranosyl]oxy]-2H-oxacyclotetradecino[4,3-d]oxazol-8-yl ester]	0.5 (≈ 0.552 µM)	8 (≈ 8.83 µM)	0.25 (≈ 0.276 µM)	0.03 (≈ 0.0331 µM)	2 (≈ 2.21 µM)					
CC[C@H]1OC(=O)[C@H](C)[C@@H](OC(=O)C(C)C)[C@H](C)[C@@H](O[C@@H]2O[C@H](C)C[C@H](N(C)C)[C@H]2O)[C@](C)(OC(=O)NC/C=C/c2ccnc3ccccc23)C[C@@H](C)C(=O)[C@H](C)[C@H]2NC(=O)O[C@@]21C [Compound 33]	0.5 (≈ 0.567 µM)	16 (≈ 18.2 µM)	0.25 (≈ 0.284 µM)	0.03 (≈ 0.034 µM)	2 (≈ 2.27 µM)					

The remaining lines, values ahead:

MIC (S. aureus ATCC29213; [1]) [µg/mL]	MIC (E. coli OC2605; [2]) [µg/mL]	MIC (E. faecalis ATCC29212; [1]) [µg/mL]	MIC (S. pneumoniae ATCC49619; [1]) [µg/mL]	MIC (H. influenzae ATCC49247; [1]) [µg/mL]	MIC (S. aureus ATCC29213; [3]) [µg/mL]	MIC (E. coli OC2605; [4]) [µg/mL]	MIC (E. faecalis ATCC29212; [3]) [µg/mL]	MIC (S. pneumoniae ATCC49619; [3]) [µg/mL]	MIC (H. influenzae ATCC49247; [3]) [µg/mL]	SMILES
					0.5 (≈ 0.526 µM)	> 16	0.5 (≈ 0.526 µM)	0.06 (≈ 0.0631 µM)	4 (≈ 4.21 µM)	CC[C@H]1OC(=O)[C@H](C)[C@@H](OC(=O)N2CCOCC2)[C@H](C)[C@@H](O[C@@H]2O[C@H](C)C[C@H](N(C)C)[C@H]2O)[C@](C)(OC(=O)NC/C=C/c2ccc(-c3ncccn3)cc2)C[C@@H](C)C(=O)[C@H](C)[C@H]2NC(=O)O[C@@]21C [Compound 63]
					1 (≈ 1.05 µM)	> 16	0.5 (≈ 0.527 µM)	0.06 (≈ 0.0632 µM)	8 (≈ 8.43 µM)	CC[C@H]1OC(=O)[C@H](C)[C@@H](OC(=O)N2CCCCC2)[C@H](C)[C@@H](O[C@@H]2O[C@H](C)C[C@H](N(C)C)[C@H]2O)[C@](C)(OC(=O)NC/C=C/c2ccc(-c3ncccn3)cc2)C[C@@H](C)C(=O)[C@H](C)[C@H]2NC(=O)O[C@@]21C [Compound 64]

Source: patent US6825172B2, “3-descladinosyl-6-O-carbamoyl and 6-O-carbonoyl macrolide antibacterial agents” (Janssen Pharmaceutica, NV, priority 2002, dated 2004)
